Data taken from ChEMBL document CHEMBL6177963, “Development of acylhydrazone linked thiazoles as non-covalent dual inhibitors of SARS-CoV-2 proteases” (Eur J Med Chem, 2025).
Calls of active or inactive are those of the source. No cut-off for these calls is given here.

Experiments:
SARS-CoV-2 [1] = assay: Anti-viral activity against SARS-CoV-2 BavPat1 infected in Vero E6 cells assessed as inhibition of viral RNA replication; format: functional, organism-based; conditions: Severe acute respiratory syndrome coronavirus 2, BavPat1, Vero C1008
[2] = molecular target: Replicase polyprotein 1ab (Severe acute respiratory syndrome coronavirus 2, UniProt P0DTD1); assay: Inhibition of recombinant SARS-CoV-2 PLpro using TLKGGI-AMC as substrate assessed as assessed as inhibition constant ny measuring fluorescence signal measured after 15 mins
[3] = molecular target: Replicase polyprotein 1ab (Severe acute respiratory syndrome coronavirus 2) (UniProt P0DTD1); assay: Inhibition of recombinant SARS-CoV-2 PLpro using TLKGGI-AMC as substrate assessed as assessed as inhibition constant ny measuring fluorescence signal at 10 uM measured after 15 mins relative to control
Human coronavirus 229E = assay: Antiviral activity against HCoV-229E infected in human Huh7.5 Fluc cells; format: functional, organism-based
[4] = Cytotoxicity against human HEK293 cells assessed as cell viability measured after 48 hrs by MTT assay; format: toxicity, cell-based
SARS-CoV-2 [5] = assay: Antiviral activity against SARS-CoV-2 infected in African green monkey Vero E6 cells assessed as viral load reduction at 4 uM by measuring viral RNA measured up to 72 hrs by RT-PCR analysis relative to control; format: functional, Severe acute respiratory syndrome coronavirus 2, Vero C1008; parameters: scale not given: the % may be the effect or the level left
SARS-CoV-2 [6] = assay: Antiviral activity against SARS-CoV-2 infected in African green monkey Vero E6 cells assessed as viral reduction by measuring viral RNA measured up to 72 hrs by RT-PCR analysis; format: functional, organism-based; conditions: Severe acute respiratory syndrome coronavirus 2, SARS-CoV-2, Vero C1008, 72 h
[7] = Cytotoxicity against African green monkey Vero E6 cells assessed as cell viability at 100 uM measured after 48 hrs by MTT assay relative to control; format: toxicity, cell-based, Vero C1008; conditions: chlorocebus sabaeus, read-out: Activity
[8] = molecular target: Replicase polyprotein 1ab (Severe acute respiratory syndrome coronavirus 2) (UniProt P0DTD1); assay: Binding affinity to SARS-CoV-2 PLpro assessed as thermal stability by measuring melting temperature of half of the proteins unfolded by differential scanning fluorimetry (DSF) (reference value: 45.79 degC)
[9] = Inhibition of SARS-CoV-2 MPro using Dabcyl-KTSAVLQ/SGFRKME- (Edans) as substrate by FRET assay; parameters: species or system Severe acute respiratory syndrome coronavirus 2
[10] = system: Severe acute respiratory syndrome coronavirus 2; assay: Binding affinity to SARS-CoV-2 MPro assessed as thermal stability by measuring melting temperature of half of the proteins unfolded by differential scanning fluorimetry (DSF) (reference value: 52.46 degC)
SARS-CoV-2 [11] = assay: Antiviral activity against SARS-CoV-2 infected in African green monkey Vero E6 cells assessed as viral load reduction at 0.125 uM by measuring viral RNA measured up to 72 hrs by RT-PCR analysis relative to control; format: functional
[12] = molecular target: Replicase polyprotein 1ab (Severe acute respiratory syndrome coronavirus 2) (UniProt P0DTD1); assay: Reversible inhibition of SARS-CoV-2 PLpro assessed as enzyme activity by dialysis; parameters: scale not given: the % may be the effect or the level left
[13] = molecular target: Chymotrypsin (Homo sapiens) (UniProt Q99895+P17538+P40313+Q6GPI1); assay: Inhibition of Chymotrypsin (unknown origin) assessed as BSA digestion; format: protein assay
[14] = Acute toxicity in rat assessed as toxicity at 175 to 2000 mg/kg, po measured for 14 days; format: organism-based; conditions: in vivo, dose 175-2000 mg/kg, time 14 day
[15] = molecular target: Replicase polyprotein 1ab (Severe acute respiratory syndrome coronavirus 2) (UniProt P0DTD1); assay: Covalent binding affinity to SARS-CoV-2 PLpro assessed as change in molecular weight by Mass spectrometry
[16] = molecular target: Replicase polyprotein 1ab (Severe acute respiratory syndrome coronavirus 2) (UniProt P0DTD1); assay: Non-covalent binding affinity to SARS-CoV-2 PLpro assessed change in molecular weight by Mass spectrometry
[17] = molecular target: Replicase polyprotein 1ab (Severe acute respiratory syndrome coronavirus 2) (UniProt P0DTD1); assay: Non-covalent inhibition of SARS-CoV-2 PLpro by Lineweaver-Burk Plot analysis
[18] = system: Severe acute respiratory syndrome coronavirus 2; assay: Non-covalent inhibition of SARS-CoV-2 MPro by Lineweaver-Burk Plot analysis
[19] = system: Severe acute respiratory syndrome coronavirus 2; assay: Reversible inhibition of SARS-CoV-2 MPro assessed as enzyme activity by dialysis; parameters: scale not given: the % may be the effect or the level left
[20] = Acute toxicity in rat assessed as change in body weight at 175 to 2000 mg/kg, po measured for 14 days; format: organism-based; conditions: in vivo, 336 h, dose 175-2000 mg/kg, time 14 day
[21] = Acute toxicity in rat assessed as morphological changes in liver in portal, periportal, and centrilobular regions at 175 to 2000 mg/kg, po measured for 14 days by Hand E staining based analysis; format: organism-based; conditions: in vivo, 336 h, dose 175-2000 mg/kg, time 14 day

CN(/N=C/c1ccccc1C(=O)O)c1ncc(-c2ccccc2Cl)s1
EC50 (SARS-CoV-2 [1]): 14 nM

CCOC(=O)c1sc(NNC(=O)c2ccc(C)cc2)nc1C
Ki ([2]; read-out: Ki): 230 nM | inhibition [3]: < 50%

CCOC(=O)c1sc(N/N=C/c2cc3ccccc3nc2Cl)nc1C
Ki [2]: Not_active

O=C(NNc1nc(-c2ccc(Cl)cc2)cs1)c1ccc(Br)cc1
Ki [2]: Not_active | inhibition [3]: < 50%

C=C1NC(=O)[C@]2(C)CSC(=N2)c2csc(n2)[C@]2(C)CSC(=N2)C([C@@H](C)CC)NC(=O)[C@@H](C)NC(=O)/C(=C\C(C)C)COC(=O)c2csc(n2)[C@H](C(C)C)N(C)C(=O)[C@H](COC)NC1=O (some centres not stated)
IC50 (Human coronavirus 229E): 2390 nM

O=C(NNc1nc(-c2ccc(Cl)cc2)cs1)c1ccc(F)cc1
IC50 at 48 h [4]: 41200 nM | Activity (SARS-CoV-2 [5]): >80% | EC50 (SARS-CoV-2 [6]): 41 nM | viability at 48 h, 100 µM [7]: 86.5% | Ki ([2]; read-out: Ki): 180 nM | Tm [8]: 47.1 °C

O=C(NNc1nc(-c2ccc(Br)cc2)cs1)c1ccc(Br)cc1
Ki [2]: Not_active | inhibition [3]: < 50%

N#Cc1ccc2nc(N3C(=O)CSC3c3c(F)cccc3Cl)sc2c1 (configuration not stated)
IC50 [9]: 10 nM

O=C(NNc1ncc(-c2ccc(Cl)cc2)s1)c1ccc2ccccc2c1
Ki ([2]; read-out: Ki): 2130 nM

CCOC(=O)c1sc(NNC(=O)/C=C/c2ccccc2)nc1C
Tm [10]: 49.9 °C | Activity (SARS-CoV-2 [11]; Severe acute respiratory syndrome coronavirus 2, Vero C1008): inactive | IC50 at 48 h [4]: 180000 nM | Activity [12]: > 90% | Activity (SARS-CoV-2 [5]): 56% | EC50 (SARS-CoV-2 [6]): 848 nM | inhibition [13]: inactive | LD50 at 336 h [14]: > 2000 mg/kg | Activity [15]: inactive | Activity [16]: Active | viability at 48 h, 100 µM [7]: 87.5% | Ki ([2]; read-out: Ki): 200 nM | Tm [8]: 41.5 °C | Activity [17]: Active | Activity [18]: Active | Activity [19]: > 90% | Activity [20]: Non-toxic | Activity [21]: Non-toxic

CCOC(=O)c1sc(NNC(=O)c2ccccc2OC)nc1C
Ki [2]: Not_active

Oc1ccc(/C=N/Nc2nc(-c3ccc(Cl)cc3)cs2)cc1
Tm [10]: 51.4 °C | IC50 at 48 h [4]: 194000 nM | inhibition [13]: inactive | viability at 48 h, 100 µM [7]: 91% | Ki ([2]; read-out: Ki): 290 nM | Tm [8]: 44.3 °C | Activity [17]: Active

CCOC(=O)c1sc(NNC(=O)c2ccco2)nc1C
Ki [2]: Not_active | inhibition [3]: < 50%

CCOC(=O)c1sc(NNC(=O)c2ccccc2C)nc1C
Ki [2]: Not_active | inhibition [3]: < 50%

O=C(NNc1nc(-c2ccc(Br)cc2)cs1)c1ccc(Cl)cc1
inhibition [13]: inactive | viability at 48 h, 100 µM [7]: 86.7% | Ki ([2]; read-out: Ki): 1720 nM

Cc1ccc(-c2csc(NNC(=O)c3ccc(F)cc3)n2)cc1
Activity (SARS-CoV-2 [11]): >70% | IC50 at 48 h [4]: 25300 nM | Activity (SARS-CoV-2 [5]): >70% | EC50 (SARS-CoV-2 [6]): 38 nM | inhibition [13]: inactive | viability at 48 h, 100 µM [7]: 92.1% | Ki ([2]; read-out: Ki): 340 nM | Tm [8]: 47.1 °C

Cc1ccc(C(=O)NNc2nc(-c3ccc(Cl)cc3)cs2)cc1
Tm [10]: 51.8 °C | IC50 at 48 h [4]: 41100 nM | Activity (SARS-CoV-2 [5]): >70% | EC50 (SARS-CoV-2 [6]): 68 nM | inhibition [13]: inactive | viability at 48 h, 100 µM [7]: 91.5% | Ki ([2]; read-out: Ki): 240 nM | Tm [8]: 45.8 °C | Activity [17]: Active

Cc1ccc(C(=O)NNc2nc(-c3ccc(Br)cc3)cs2)cc1
Ki [2]: Not_active | inhibition [3]: < 50%

O=C(NNc1nc(-c2ccc(Cl)cc2)cs1)c1ccc(Cl)cc1
IC50 at 48 h [4]: 14000 nM | Activity (SARS-CoV-2 [5]): >80% | EC50 (SARS-CoV-2 [6]): 64 nM | viability at 48 h, 100 µM [7]: 87% | Ki ([2]; read-out: Ki): 500 nM | Tm [8]: 47.5 °C

CCOC(=O)c1sc(NNC(=O)c2ccc(F)cc2)nc1C
Ki [2]: Not_active | inhibition [3]: < 50%

CCOC(=O)c1sc(NNC(=O)c2ccc(Cl)cc2)nc1C
Tm [10]: 52.1 °C | Activity (SARS-CoV-2 [11]): >70% | IC50 at 48 h [4]: 45500 nM | Activity (SARS-CoV-2 [5]): >80% | EC50 (SARS-CoV-2 [6]): 72 nM | inhibition [13]: inactive | viability at 48 h, 100 µM [7]: 92.5% | Ki [2]: Not_active | Tm [8]: 44.7 °C | Activity [17]: Active
